The results in this text go back to article PMC10894092, “Characterization of a recombinant Aspergillus niger GZUF36 lipase immobilized by ionic liquid modification strategy” (Applied Microbiology and Biotechnology, 2024).

For the assay, the system named is T1, PEXANL1.
T1 construct: gene EXANL1; recombinant extracellular lipase, secreted/purified from Pichia pastoris GS115
The assay can be described thus: p-nitrophenol release at […] nm, Lineweaver-Burk. It counts as biochemical, Aspergillus niger. Particulars: free enzyme; pH 5.0, 45 °C; 5-30 mM substrate range; phosphate-citrate buffer, substrate stock in 2-propanol.

Regarding `CCCCCCCCCCCCCCCC(=O)Oc1ccc([N+](=O)[O-])cc1` [p-nitrophenyl palmitate], the Km was 2650 µM.
